Usually IC50 stands for the concentration needed to halve the response being measured.

Structures are written as SMILES.

The test system of one experiment is amyloid β production in transfected H4 (human neuroglioma) cells stably expressing APP constructs. Description: In vitro cell-based assay of inhibitors of amyloid β production (ELISA). The note with it: Homo sapiens, 16 h, transfected H4 cells stably expressing APP constructs; approximately 16 hours incubation; amyloid β in medium by ELISA; read-out: ACTIVITY (IC50, inhibition of amyloid β production). The method in brief:
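Test agents are screened at 10-100 μM for about 16 hours on cells stably expressing wild-type or variant APP. Secreted Aβ is measured by ELISA and compared with control-treated cells.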
Consider `C[C@H](CCCS(=O)(=O)N(CCCn1ccnc1)CC1CC1)N(c1cc(Cl)ccc1CO)S(=O)(=O)c1ccc(Cl)cc1` [Example 1236, 4-chloro-N-[5-chloro-2-(hydroxymethyl)phenyl]-N-[4-[N-(cyclopropylmethyl)-N-[3-(1H-imidazol-1-yl)-propyl]aminosulfonyl]-1(R)-methylbutyl]benzenesulfonamide], for which the half-inhibitory concentration (IC50) fell in the range of 0.1 to 0.5 µM. On the same count and under the same terms, the result for `C[C@H](COC(=O)N1CCCC1)N(c1cc(Cl)ccc1Cl)S(=O)(=O)c1ccc(Cl)cc1` [Example 1237, 4-Chloro-N-(2,5-dichlorophenyl)-N-[2-[[[pyrrolidin-1-yl]carbonyl]oxy]-R-1-methylethyl]benzenesulfonamide] reads no more than 0.025 µM; that for `C[C@H](COC(=O)N1CCCC1)N(c1cc(F)ccc1F)S(=O)(=O)c1ccc(Cl)cc1` [Example 1238, 4-Chloro-N-(2,5-difluorophenyl)-N-[2-[[[pyrrolidin-1-yl]carbonyl]oxy]-R-1-methylethyl]benzenesulfonamide], no more than 0.025 µM; that for `C[C@H](COC(=O)N1CCCC1)N(c1cc(Cl)ccc1F)S(=O)(=O)c1ccc(Cl)cc1` [Example 1243, 4-Chloro-N-(2-fluoro-5-chlorophenyl)-N-[2-[[[pyrrolidin-1-yl]carbonyl]oxy]-(R)-1-methylethyl]benzenesulfonamide], no more than 0.025 µM.

The experiment is the same for the next values; noted with them: transfected H4 cells stably expressing APP constructs; approximately 16 hours incubation; amyloid β in medium by ELISA; read-out: ACTIVITY (IC50, inhibition of amyloid β production).
`C[C@H](COC(=O)NCCCn1ccnc1)N(c1cc(F)ccc1F)S(=O)(=O)c1ccc(Cl)cc1` [Example 1239, 4-Chloro-N-(2,5-difluorophenyl)-N-[2-[[N′-[3-(1H-imidazol-1-yl)propylamino]carbonyl]oxy]-(R)-1-methylethyl]benzenesulfonamide]: the 50% inhibitory concentration (IC50) is no more than 0.025 µM. Same read-out and setting: in the case of `C[C@H](COC(=O)NCCCn1ccnc1)N(c1cc(Cl)ccc1Cl)S(=O)(=O)c1ccc(Cl)cc1` [Example 1240, 4-Chloro-N-(2,5-dichlorophenyl)-N-[2-[[N′-[3-(1H-imidazol-1-yl)propylamino]carbonyl]oxy]-(R)-1-methylethyl]benzenesulfonamide] it was no more than 0.025 µM; in that of `C[C@H](COC(=O)N1CCC[C@H]1CO)N(c1cc(Cl)ccc1Cl)S(=O)(=O)c1ccc(Cl)cc1` [Example 1241], no more than 0.025 µM; in that of `C[C@H](COC(=O)NCCN1CCCCC1)N(c1cc(Cl)ccc1Cl)S(=O)(=O)c1ccc(Cl)cc1` [Example 1242], no more than 0.025 µM. Still for that read-out and setting: in the case of `C[C@H](COC(=O)NCCCn1ccnc1)N(c1cc(Cl)ccc1F)S(=O)(=O)c1ccc(Cl)cc1` [Example 1244, 4-Chloro-N-(2-fluoro-5-chlorophenyl)-N-[2-[[N′-[3-(1H-imidazol-1-yl)propylamino]carbonyl]oxy]-(R)-1-methylethyl]benzenesulfonamide] it was no more than 0.025 µM. Same read-out and setting: the result for `C[C@H](COC(=O)NCCc1c[nH]cn1)N(c1cc(Cl)ccc1F)S(=O)(=O)c1ccc(Cl)cc1` [Example 1245, 4-Chloro-N-(2-fluoro-5-chlorophenyl)-N-[2-[[N′-[2-(1H-imidazol-4-yl)ethylamino]carbonyl]oxy]-(R)-1-methylethyl]benzenesulfonamide] reads no more than 0.025 µM. For `C[C@H]([C@@H](C)OC(=O)NCCCn1ccnc1)N(c1cc(Cl)ccc1CO)S(=O)(=O)c1ccc(Cl)cc1` [Example 1246, 4-Chloro-N-[5-chloro-2-(hydroxymethyl)phenyl]-N-[2-[[N′-[3-(1H-imidazol-1-yl)propylamino]carbonyl]oxy]-(1R)-(2R)-dimethylethyl]benzenesulfonamide], the IC50 was no more than 0.025 µM. In the case of `CCN(CCCn1ccnc1)C(=O)OC[C@@H](C)N(c1cc(Cl)ccc1Cl)S(=O)(=O)c1ccc(Cl)cc1` [Example 1247, 4-Chloro-N-(2,5-dichlorophenyl)-N-[2-[[[N′-[3-(1H-imidazol-1-yl)propyl]-N′-ethylamino]carbonyl]oxy]-(R)-1-methylethyl]benzenesulfonamide], the IC50 was no more than 0.025 µM.

As to `C[C@H](COC(=O)NCCCn1cnnn1)N(c1cc(Cl)ccc1Cl)S(=O)(=O)c1ccc(Cl)cc1` [Example 1248, 4-Chloro-N-(2,5-dichlorophenyl)-N-[2-[[N′-[3-(1H-tetrazol-1-yl)propylamino]carbonyl]oxy]-(R)-1-methylethyl]benzenesulfonamide], the IC50 is no more than 0.025 µM. The same measure, in the same setting: the result for `C[C@H](COC(=O)N(C)CCO)N(c1cc(Cl)ccc1Cl)S(=O)(=O)c1ccc(Cl)cc1` [Example 1249, 4-Chloro-N-(2,5-dichlorophenyl)-N-[2-[[N′-[2-(hydroxyethyl)-N′-methylamino]carbonyl]oxy]-(R)-1-methylethyl]benzenesulfonamide] reads no more than 0.025 µM. In the case of `C[C@H](COC(=O)N(C)CCCn1ccnc1)N(c1cc(Cl)ccc1Cl)S(=O)(=O)c1ccc(Cl)cc1` [Example 1250, 4-Chloro-N-(2,5-dichlorophenyl)-N-[2-[[[N′-[3-(1H-imidazol-1-yl)propyl]-N′-methylamino]carbonyl]oxy]-(R)-1-methylethyl]benzenesulfonamide], the concentration for half-maximal inhibition (IC50) is no more than 0.025 µM. Consider `C[C@H](COC(=O)N(CCCn1ccnc1)CC1CC1)N(c1cc(Cl)ccc1CO)S(=O)(=O)c1ccc(Cl)cc1` [Example 1251, 4-Chloro-N-[5-chloro-2-(hydroxymethyl)phenyl]-N-[2-[[[N′-[3-(1H-imidazol-1-yl)propyl]-N′-cyclopropylmethylamino]carbonyl]oxy]-(R)-1-methylethyl]benzenesulfonamide], for which the half-inhibitory concentration (IC50) was no more than 0.025 µM. As to `CC(C)N(CCCn1ccnc1)C(=O)OC[C@@H](C)N(c1cc(Cl)ccc1CO)S(=O)(=O)c1ccc(Cl)cc1` [Example 1252, 4-Chloro-N-[5-chloro-2-(hydroxymethyl)phenyl]-N-[2-[[[N′-[3-(1H-imidazol-1-yl)propyl]-N′-(2-methylethyl)amino]carbonyl]oxy]-(R)-1-methylethyl]benzenesulfonamide], the IC50 is no more than 0.025 µM.

On to `CC([C@@H]1CCCN1CCS(C)(=O)=O)N(c1cc(Cl)ccc1Cl)S(=O)(=O)c1ccc(Cl)cc1` (stereo partly shown) [Example 1253], for which the IC50 was 0.1 to 0.5 µM. Take `CC([C@@H]1CCCN1)N(c1cc(Cl)ccc1Cl)S(=O)(=O)c1ccc(Cl)cc1` (stereo partly shown) [Example 1254]: the IC50 was greater than 0.5 µM.

In the case of `COC(=O)[C@@H](NC(=O)CC[C@@H](C)N(c1cc(Cl)ccc1F)S(=O)(=O)c1ccc(Cl)cc1)C(C)C` [Example 1257, (R)-4-Chloro-N-(5-chloro-2-fluorophenyl)-N-[4-[N-(S)-[1-(methoxycarbonyl)-2-methylpropyl]amino]-1-methyl-4-oxobutyl]benzenesulfonamide], the IC50 lay within 0.05 to 0.1 µM. Turning to `COC(=O)[C@H](CC(C)C)NC(=O)CCCC[C@@H](C)N(c1cc(Cl)ccc1F)S(=O)(=O)c1ccc(Cl)cc1` [Example 1258, (R)-4-Chloro-N-(5-chloro-2-fluorophenyl)-N-[6-[N-(S)-[1-(methoxycarbonyl)-3-methylbutyl]amino]-1-methyl-6-oxohexyl]benzenesulfonamide], the IC50 was no more than 0.025 µM. Turning to `CC(C)C[C@H](NC(=O)CCCC[C@@H](C)N(c1cc(Cl)ccc1F)S(=O)(=O)c1ccc(Cl)cc1)C(=O)O` [Example 1259, (R)-4-Chloro-N-(5-chloro-2-fluorophenyl)-N-[6-[N-(S)-[1-(carboxy)-3-methylbutyl]amino]-1-methyl-6-oxohexyl]benzenesulfonamide], the IC50 was no more than 0.025 µM.
